According to patent US4886810A, “Quinoline derivatives, pharmaceutical composition and method of use” (Dainippon Pharmaceutical Co., Ltd., priority 1986, dated 1989):
≈ marks a conversion by molar mass, not a printed value. Where two headings read alike, the source gives them in different places.

Legend:
[1] = system: B. abortus kusayanagi; experiment: microbe, parasite or virus in culture; type: cell-based; settings: Brucella abortus, 20 h; read-out: minimum inhibitory concentrations (MIC)
[2] = system: M. bovis P-7101; experiment: microbe, parasite or virus in culture; type: cell-based; settings: Mycobacterium tuberculosis variant bovis, P7101, 20 h; read-out: minimum inhibitory concentrations (MIC)
[3] = in vivo; settings: mouse, po
[4] = system: Flavobacterium sp P-7201; experiment: microbe, parasite or virus in culture; type: cell-based; settings: P7201, 20 h, read-out: minimum inhibitory concentrations (MIC)
[5] = system: Gram-positive and Gram-negative bacteria; experiment: In vitro antibacterial activity, overall; type: cell-based
Description: The numbers in the table show minimum inhibitory concentrations (MIC) (μg/ml), calculated for free base. The minimum inhibitory concentration was determined by the twofold agar-dilution method, which was recommended by Japan Society of Chemotherapy (Chemotherapy, 29(1), (1981)), using Muller-Hinton agar. One loopful of an overnight culture of test organisms in Mueller-Hinton broth was inoculated onto 10-ml drug-containing agar layers in petri dishes. Bacterial inocula contained approximately 10^6 colonyl-forming units. Bacterial growth was observed after 20-hour incubation at 37° C. The MIC was defined as the lowest drug concentration which prevented visible bacterial growth.

[6] = system: S. pyogenes Cook; experiment: microbe, parasite or virus in culture; type: cell-based
[7] = system: M. lacunata P-7102; experiment: microbe, parasite or virus in culture; type: cell-based
[8] = system: S. aureus No. 50774; experiment: microbe, parasite or virus in culture; type: cell-based
[9] = system: S. aureus No. 80; experiment: microbe, parasite or virus in culture; type: cell-based
[10] = system: S. aureus 209P JC-1; experiment: microbe, parasite or virus in culture; type: cell-based; settings: Staphylococcus aureus, 20 h, read-out: minimum inhibitory concentrations (MIC)
[11] = system: P. aeruginosa 12; experiment: microbe, parasite or virus in culture; type: cell-based
[12] = system: male mice (ddY); experiment: Acute oral toxicity in mice (Table 3); settings: mouse, in vivo
[13] = system: E. coli P-51213; experiment: microbe, parasite or virus in culture; type: cell-based
[14] = system: S. pyogenes A 65; experiment: microbe, parasite or virus in culture; type: cell-based
[15] = system: Staphylococcus aureus 50774; experiment: animal or person; type: in vivo; settings: for ED50: Staphylococcus aureus, 50774, in Mus musculus, po, 336 h, read-out: median effective dose (ED50)
[16] = system: Streptococcus pyogenes A65; experiment: animal or person; type: in vivo; settings: A65, in Mus musculus, po, 168 h, 7 days, read-out: median effective dose (ED50)
[17] = system: Pseudomonas aeruginosa 12; experiment: animal or person; type: in vivo; settings: for ED50: Pseudomonas aeruginosa, 12, in Mus musculus, po, 168 h, 7 days, read-out: median effective dose (ED50); for efficacy against systemic infection by P. aeruginosa 12 compared with Compound A (in words): in vivo
[18] = in vivo; set-up: species or system mice; settings: mouse; for dose excreted at 24 h: 5 mg/kg
[19] = system: Gram-positive and Gram-negative bacteria; experiment: In vivo efficacy against systemic infections, overall; settings: for therapeutic effect on infections by Gram-positive and Gram-negative bacteria (in words): in vivo; for therapeutic effect compared with Compounds A and B (in words): versus Compounds A and B, systemic infections, mice
Description: Compounds were each dissolved in deionized water. Each of the solutions was orally administered to mice infected with each of the test organisms under the conditions shown hereinbelow, and the median effective dose (ED 50) was calculated by […]. The numerals in the table show ED50 (mg/kg) value, calculated for free base.
Mice: Male mice (ddY-S) weighing about 20 g Infection:
Twice, immediately and 6 hours after infection.
For 14 days in case of Staphylococcus aureus 50774.
For 7 days in case of other organisms.

[20] = Streptococcus pyogenes, 20 h; read-out: minimum inhibitory concentrations (MIC)
[21] = 20 h; read-out: minimum inhibitory concentrations (MIC)
[22] = Staphylococcus aureus, NO.50774, 20 h; read-out: minimum inhibitory concentrations (MIC)
[23] = Staphylococcus aureus, NO.80, 20 h; read-out: minimum inhibitory concentrations (MIC)
[24] = Pseudomonas aeruginosa, 12, 20 h; read-out: minimum inhibitory concentrations (MIC)
[25] = Escherichia coli, P51213, 20 h; read-out: minimum inhibitory concentrations (MIC)
[26] = Streptococcus pyogenes, A65, 20 h; read-out: minimum inhibitory concentrations (MIC)

Row | SMILES | MIC [1] | MIC [2] | LD50 at 168 h [3] | MIC [4] | antibacterial activity against Gram-positive and Gram-negative bacteria (in words) [5] | MIC [6, 20] | MIC [7, 21] | MIC [8, 22] | MIC [9, 23] | MIC [10] | MIC [11, 24] | toxicity (in words) [12] | MIC [13, 25] | MIC [14, 26] | ED50 [16] | ED50 [17] | also measured
1 | C[C@H]1CN(c2c(F)c(F)c3c(=O)c(C(=O)O)cn(C4CC4)c3c2F)C[C@H]1N (relative stereo) [Compound 2, 1-cyclopropyl-5,6,8-trifluoro-7-(cis3-amino-4-methyl-1-pyrrolidinyl)-1,4-dihydro-4-oxoquinoline-3-carboxylic acid] | 0.78 µg/mL (≈ 2.05 µM) | 0.39 µg/mL (≈ 1.02 µM) | > 2000 mg/kg | 0.2 µg/mL (≈ 0.524 µM) | very high antibacterial activities | 0.2 µg/mL (≈ 0.524 µM) | 0.78 µg/mL (≈ 2.05 µM) | 0.05 µg/mL (≈ 0.131 µM) | 0.05 µg/mL (≈ 0.131 µM) | 0.05 µg/mL (≈ 0.131 µM) | 0.39 µg/mL (≈ 1.02 µM) | low oral toxicity | 0.05 µg/mL (≈ 0.131 µM) | 0.39 µg/mL (≈ 1.02 µM) | – | – | –
2 | C[C@@H]1CN(c2c(F)c(N)c3c(=O)c(C(=O)O)cn(C4CC4)c3c2F)C[C@H]1N (relative stereo) [Compound 5, 5-amino-7-(trans-3-amino-4-methyl-1-pyrrolidinyl)-1-cyclopropyl-6,8-difluoro-1,4-dihydro-4-oxoquinoline-3-carboxylic acid] | 0.2 µg/mL (≈ 0.529 µM) | 0.1 µg/mL (≈ 0.264 µM) | > 2000 mg/kg | 0.05 µg/mL (≈ 0.132 µM) | very high antibacterial activities | 0.1 µg/mL (≈ 0.264 µM) | 0.39 µg/mL (≈ 1.03 µM) | 0.0125 µg/mL (≈ 0.033 µM) | 0.0125 µg/mL (≈ 0.033 µM) | 0.025 µg/mL (≈ 0.0661 µM) | 0.1 µg/mL (≈ 0.264 µM) | low oral toxicity | 0.025 µg/mL (≈ 0.0661 µM) | 0.1 µg/mL (≈ 0.264 µM) | – | – | –
3 | C[C@H]1CN(c2c(F)c(N)c3c(=O)c(C(=O)O)cn(C4CC4)c3c2F)C[C@H]1CN.Cl (relative stereo) [Compound 6, 5-amino-7-(cis-3-aminomethyl-4-methyl-1-pyrrolidinyl)-1-cyclopropyl-6,8-difluoro-1,4-dihydro-4-oxoquinoline-3-carboxylic acid hydrochloride] | 0.39 µg/mL | 0.2 µg/mL | – | 0.025 µg/mL | – | 0.0063 µg/mL | 0.2 µg/mL | 0.0031 µg/mL | 0.0031 µg/mL | < 0.0031 µg/mL | 0.1 µg/mL | – | 0.0125 µg/mL | 0.0125 µg/mL | – | – | –
4 | CC1CN(c2c(F)c(F)c3c(=O)c(C(=O)O)cn(C4CC4)c3c2F)CCN1 (stereo not shown) [Compound 1, 1-cyclopropyl-5,6,8-trifluoro-7-(3-methyl-1-piperazinyl)-1,4-dihydro-4-oxoquinoline-3-carboxylic acid] | 3.13 µg/mL (≈ 8.21 µM) | 1.56 µg/mL (≈ 4.09 µM) | > 2000 mg/kg | 0.39 µg/mL (≈ 1.02 µM) | very high antibacterial activities | 1.56 µg/mL (≈ 4.09 µM) | 6.25 µg/mL (≈ 16.4 µM) | 0.2 µg/mL (≈ 0.524 µM) | 0.2 µg/mL (≈ 0.524 µM) | 0.2 µg/mL (≈ 0.524 µM) | 0.78 µg/mL (≈ 2.05 µM) | low oral toxicity | 0.1 µg/mL (≈ 0.262 µM) | 1.56 µg/mL (≈ 4.09 µM) | 17.3 mg/kg | 2.46 mg/kg | ED50 ([15]; 14 days): 2.4 mg/kg; efficacy against systemic infection by S. aureus 50774 compared with Compound B (in words) ([15]; in vivo): better efficacy; efficacy against systemic infection by P. aeruginosa 12 compared with Compound A (in words) [17]: better efficacy; dose excreted at 24 h ([18]; feces, iv, read-out: Feces recovery): 14%; dose excreted at 24 h ([18]; feces, po, read-out: Feces recovery): 22.3%; absorbability (in words) ([18]; in vivo): very good oral absorbability; metabolic stability (in words) ([18]; in vivo): good metabolic stability; total recovery (in words) ([18]; in vivo): High total recovery; urinary excretion (in words) ([18]; in vivo): very good; metabolic stability and oral absorbability compared with Compound B (in words) ([18]; in vivo, po): superior to Compound B in metabolic stability and oral absorbability; dose excreted at 24 h ([18]; urine and feces, iv, read-out: Total recovery): 77.6%; dose excreted at 24 h ([18]; urine and feces, po, read-out: Total recovery): 85.7%; dose excreted at 24 h ([18]; urine, iv, read-out: Urine recovery): 63.6%; dose excreted at 24 h ([18]; urine, po, read-out: Urine recovery): 63.4%; therapeutic effect on infections by Gram-positive and Gram-negative bacteria (in words) [19]: potent therapeutic effects; therapeutic effect compared with Compounds A and B (in words) [19]: better therapeutic effects
5 | CC1(N)CCN(c2c(F)c(N)c3c(=O)c(C(=O)O)cn(C4CC4)c3c2F)C1 (stereo not shown) [Compound 3, 5-amino-7-(3-amino-3-methyl-1-pyrrolidinyl)-1-cyclopropyl-6,8-difluoro-1,4-dihydro-4-oxoquinoline-3-carboxylic acid] | 0.39 µg/mL (≈ 1.03 µM) | 0.2 µg/mL (≈ 0.529 µM) | > 2000 mg/kg | 0.1 µg/mL (≈ 0.264 µM) | very high antibacterial activities | 0.1 µg/mL (≈ 0.264 µM) | 0.78 µg/mL (≈ 2.06 µM) | 0.025 µg/mL (≈ 0.0661 µM) | 0.0063 µg/mL (≈ 0.0166 µM) | 0.025 µg/mL (≈ 0.0661 µM) | 0.2 µg/mL (≈ 0.529 µM) | low oral toxicity | 0.05 µg/mL (≈ 0.132 µM) | 0.1 µg/mL (≈ 0.264 µM) | 9.14 mg/kg | 1.68 mg/kg | efficacy against systemic infection by P. aeruginosa 12 compared with Compound A (in words) [17]: better efficacy; therapeutic effect on infections by Gram-positive and Gram-negative bacteria (in words) [19]: potent therapeutic effects; therapeutic effect compared with Compounds A and B (in words) [19]: better therapeutic effects
6 | CCC1(N)CCN(c2c(F)c(N)c3c(=O)c(C(=O)O)cn(C4CC4)c3c2F)C1 (stereo not shown) [Compound 4, 5-amino-7-(3-amino-3-ethyl-1-pyrrolidinyl)-1-cyclopropyl-6,8-difluoro-1,4-dihydro-4-oxoquinoline-3-carboxylic acid] | 0.39 µg/mL (≈ 0.994 µM) | 0.2 µg/mL (≈ 0.51 µM) | > 2000 mg/kg | 0.05 µg/mL (≈ 0.127 µM) | very high antibacterial activities | 0.1 µg/mL (≈ 0.255 µM) | 0.78 µg/mL (≈ 1.99 µM) | 0.025 µg/mL (≈ 0.0637 µM) | 0.0063 µg/mL (≈ 0.0161 µM) | 0.025 µg/mL (≈ 0.0637 µM) | 0.2 µg/mL (≈ 0.51 µM) | low oral toxicity | 0.05 µg/mL (≈ 0.127 µM) | 0.2 µg/mL (≈ 0.51 µM) | – | – | –
7 | CCn1cc(C(=O)O)c(=O)c2c(N)c(F)c(N3CCNCC3)c(F)c21 [Compound A, 5-amino-1-ethyl-6,8-difluoro-7-(1piperazinyl)-1,4-dihydro-4-oxoquinoline-3-carboxylic acid, reference compound] | 3.13 µg/mL (≈ 8.88 µM) | 3.13 µg/mL (≈ 8.88 µM) | – | 0.78 µg/mL (≈ 2.21 µM) | – | 6.25 µg/mL (≈ 17.7 µM) | 6.25 µg/mL (≈ 17.7 µM) | 0.2 µg/mL (≈ 0.568 µM) | 0.2 µg/mL (≈ 0.568 µM) | 0.2 µg/mL (≈ 0.568 µM) | 0.78 µg/mL (≈ 2.21 µM) | – | 0.39 µg/mL (≈ 1.11 µM) | 12.5 µg/mL (≈ 35.5 µM) | > 25 mg/kg | 15 mg/kg | –
8 | Cl.O=C(O)c1cn(C2CC2)c2cc(N3CCNCC3)c(F)cc2c1=O [Compound B, 1-cyclopropyl-6-fluoro-7-(1-piperazinyl)-1,4-dihydro-4-oxoquinoline-3carboxylic acid hydrochloride, reference compound] | – | – | – | 0.39 µg/mL | – | – | – | – | – | 0.1 µg/mL | – | – | – | – | – | – | ED50 [15]: 11.7 mg/kg; MIC ([6]; Streptococcus pyogenes, 20 h, read-out: minimum inhibitory concentrations (MIC)): 0.2 µg/mL; MIC ([7]; 20 h, read-out: minimum inhibitory concentrations (MIC)): 6.25 µg/mL; MIC ([8]; Staphylococcus aureus, NO.50774, 20 h, read-out: minimum inhibitory concentrations (MIC)): 0.1 µg/mL; MIC ([9]; Staphylococcus aureus, NO.80, 20 h, read-out: minimum inhibitory concentrations (MIC)): 0.39 µg/mL; MIC ([11]; Pseudomonas aeruginosa, 12, 20 h, read-out: minimum inhibitory concentrations (MIC)): 0.1 µg/mL; MIC ([13]; Escherichia coli, P51213, 20 h, read-out: minimum inhibitory concentrations (MIC)): 0.05 µg/mL; MIC ([14]; Streptococcus pyogenes, A65, 20 h, read-out: minimum inhibitory concentrations (MIC)): 0.2 µg/mL
